Test results as given in the supplement of paper PMC5908809.

Experiments:
[1] = tested on: normal NK cells expanded with K562-aAPC; experiment: percent inhibition of viability; higher = more inhibition; settings: 72 h, IL-2 2.5 ng/mL
Method: (§1)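 Drug sensitivity and resistance testing on K562-aAPC-expanded normal NK cells: 5 concentrations (10-fold steps over a 10,000-fold range), 72 h at 37 °C, viability by CellTiter-Glo normalised to DMSO and benzethonium chloride controls; DSS from the fitted curve.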

DERL-7 (IL-2 2.5 ng/mL) [2] = experiment: as above; settings: 72 h
IMC-1 (IL-2 20 ng/mL) [3] = experiment: as above; settings: 72 h
KAI3 (IL-2 2.5 ng/mL) [4] = experiment: as above; settings: 72 h
KHYG-1 (IL-2 2.5 ng/mL) [5] = experiment: as above; settings: 72 h
NK-92 (IL-2 2.5 ng/mL) [6] = experiment: as above; settings: 72 h
NK-YS (IL-2 2.5 ng/mL) [7] = experiment: as above; settings: 72 h
NKL (IL-2 2.5 ng/mL) [8] = experiment: as above; settings: 72 h
SNK-6 (IL-2 2.5 ng/mL) [9] = experiment: as above; settings: 72 h
YT (IL-2 2.5 ng/mL) [10] = experiment: as above; settings: 72 h
[11] = tested on: normal primary NK cells, pool 1 (3 donors) (IL-2 2.5 ng/mL); experiment: as above; settings: 72 h
[12] = tested on: normal primary NK cells, pool 1 (3 donors), resting (IL-2 0 ng/mL); experiment: as above; settings: 72 h
[13] = tested on: normal primary NK cells, pool 2 (3 donors) (IL-2 2.5 ng/mL); experiment: as above; settings: 72 h
[14] = tested on: normal primary NK cells, pool 3 (3 donors) (IL-2 2.5 ng/mL); experiment: as above; settings: 72 h
[15] = tested on: normal NK cells expanded with K562-aAPC; experiment: drug sensitivity score (DSS) (DSS units); higher = more sensitive; extreme values may be limits of the assay; settings: 72 h; IL-2 2.5 ng/mL
Method: as §1

DERL-7 (IL-2 2.5 ng/mL) [16] = experiment: as above; settings: 72 h
IMC-1 (IL-2 20 ng/mL) [17] = experiment: as above; settings: 72 h
KAI3 (IL-2 2.5 ng/mL) [18] = experiment: as above; settings: 72 h
KHYG-1 (IL-2 2.5 ng/mL) [19] = experiment: as above; settings: 72 h
NK-92 (IL-2 2.5 ng/mL) [20] = experiment: as above; settings: 72 h
NK-YS (IL-2 2.5 ng/mL) [21] = experiment: as above; settings: 72 h
NKL (IL-2 2.5 ng/mL) [22] = experiment: as above; settings: 72 h
SNK-6 (IL-2 2.5 ng/mL) [23] = experiment: as above; settings: 72 h
YT (IL-2 2.5 ng/mL) [24] = experiment: as above; settings: 72 h
[25] = tested on: normal primary NK cells, pool 1 (3 donors) (IL-2 2.5 ng/mL); experiment: as above; settings: 72 h
[26] = tested on: normal primary NK cells, pool 1 (3 donors), resting (IL-2 0 ng/mL); experiment: as above; settings: 72 h
[27] = tested on: normal primary NK cells, pool 2 (3 donors) (IL-2 2.5 ng/mL); experiment: as above; settings: 72 h
[28] = tested on: normal primary NK cells, pool 3 (3 donors) (IL-2 2.5 ng/mL); experiment: as above; settings: 72 h

Cc1c(NC(=O)OC[C@@H]2COCCN2)cn2ncnc(Nc3ccc4c(cnn4Cc4cccc(F)c4)c3)c12 (max concentration tested 10000 nM)
percent inhibition of viability [%]
Settings | 1 nM | 10 nM | 100 nM | 1000 nM | 10000 nM
DERL-7 (IL-2 2.5 ng/mL) [2] | -2.53 | -0.41 | -0.2 | 2.93 | 52.5
IMC-1 (IL-2 20 ng/mL) [3] | -5.26 | -0.97 | 0.8 | 4.51 | 43.6
KAI3 (IL-2 2.5 ng/mL) [4] | 1.51 | 4.45 | 5.56 | -0.23 | 65.3
KHYG-1 (IL-2 2.5 ng/mL) [5] | 4.55 | 7.44 | 7.32 | 8.8 | 77.5
NK-92 (IL-2 2.5 ng/mL) [6] | -5.71 | -0.55 | 7.56 | 7.66 | 105
NK-YS (IL-2 2.5 ng/mL) [7] | 1.47 | 0.48 | 3.03 | 2.38 | 38.8
NKL (IL-2 2.5 ng/mL) [8] | -10.7 | 1.23 | -8.56 | 0.45 | 55.9
SNK-6 (IL-2 2.5 ng/mL) [9] | -6.28 | -7.55 | -9.76 | -27.8 | 33.1
YT (IL-2 2.5 ng/mL) [10] | 2.59 | 1.59 | 4.74 | 2.33 | 47.5
[1] | 6.16 | 1.61 | -2.01 | 5.74 | 30.1
[11] | 1.48 | -6.08 | -9.4 | -15 | 34.3
[12] | 4.93 | -4.06 | 4.13 | -12.6 | 58.4
[13] | -13 | -2.17 | -2.11 | 0.64 | 57.2
[14] | -5.86 | 2.09 | 3.41 | -2.09 | 44

Settings | drug sensitivity score
DERL-7 (IL-2 2.5 ng/mL) [16] | 3.21
IMC-1 (IL-2 20 ng/mL) [17] | 2.97
KAI3 (IL-2 2.5 ng/mL) [18] | 3.56
KHYG-1 (IL-2 2.5 ng/mL) [19] | 5.75
NK-92 (IL-2 2.5 ng/mL) [20] | 7.04
NK-YS (IL-2 2.5 ng/mL) [21] | 2.25
NKL (IL-2 2.5 ng/mL) [22] | 3.06
SNK-6 (IL-2 2.5 ng/mL) [23] | 0.86
YT (IL-2 2.5 ng/mL) [24] | 2.8
[15] | 2.22
[25] | 1.06
[26] | 2.48
[27] | 3.16
[28] | 2.07
